Assay: xn = mol fraction of the nth substance listed
Details: 101 kPa, Liquid; for viscosity: Capillary tube (Ostwald / Ubbelohde) method; for speed of sound: Frequency=2 MHz, Linear variable-path acoustic interferometer; for mass density: Vibrating tube method

ClCCCl [1,2-dichloroethane] + C1COCCO1
Details	mass density, 298.15 K [kg/m3]	mass density, 308.15 K [kg/m3]	mass density, 318.15 K [kg/m3]	speed of sound, 298.15 K [m/s]	viscosity, 298.15 K [mPa·s]	viscosity, 308.15 K [mPa·s]	viscosity, 318.15 K [mPa·s]
x2 = 0	1246.37	1231.21	1214.55	1193.6	0.7804	0.6744	0.5719
x2 = 0.0934	1221.34	1206.17	1189.14	1198.9	0.8045	0.6918	0.5856
x2 = 0.1881	1197.17	1182.34	1164.97	1204.7	0.8332	0.7127	0.6042
x2 = 0.2843	1173.99	1159.5	1141.96	1211.7	0.864	0.737	0.6266
x2 = 0.3819	1151.77	1137.63	1120	1218.7	0.8974	0.7628	0.6499
x2 = 0.4258	1142.09	1128.16	1110.67	1222.7	0.9132	0.7747	0.6611
x2 = 0.5816	1109.56	1096.17	1079.43	1240.4	0.9729	0.8211	0.705
x2 = 0.6838	1089.25	1076.38	1060.46	1256.1	1.016	0.8551	0.7374
x2 = 0.7875	1069.16	1056.58	1042.21	1277.4	1.064	0.8949	0.775
x2 = 0.8929	1048.86	1036.88	1024.08	1306.8	1.117	0.9435	0.8234

NCCO [2-aminoethan-1-ol] + C1COCCO1
Details	mass density, 298.15 K [kg/m3]	mass density, 308.15 K [kg/m3]	mass density, 318.15 K [kg/m3]	speed of sound, 298.15 K [m/s]	viscosity, 298.15 K [mPa·s]	viscosity, 308.15 K [mPa·s]	viscosity, 318.15 K [mPa·s]
x2 = 0	1011.79	1004.68	998.15	1716.8	18.95	11.96	7.913
x2 = 0.0597	1015.53	1007.5	1000.35	1696.8	16.05	10.32	6.94
x2 = 0.1251	1018.05	1010.07	1001.77	1677.7	13.39	8.772	6.01
x2 = 0.1969	1020.39	1011.65	1003.06	1654.2	10.97	7.34	5.132
x2 = 0.276	1022.47	1013.21	1004.08	1626.7	8.798	6.031	4.321
x2 = 0.3639	1024.23	1014.47	1004.75	1593.6	6.892	4.851	3.555
x2 = 0.4618	1025.64	1015.23	1004.92	1557.5	5.249	3.804	2.867
x2 = 0.5716	1026.41	1015.49	1005.06	1517.9	3.868	2.898	2.255
x2 = 0.6958	1027.09	1015.74	1004.96	1471.8	2.739	2.132	1.719
x2 = 0.8373	1027.58	1016.22	1005.1	1417.1	1.849	1.506	1.266

NCCN [ethane-1,2-diamine] + C1COCCO1
Details	mass density, 298.15 K [kg/m3]	mass density, 308.15 K [kg/m3]	mass density, 318.15 K [kg/m3]	speed of sound, 298.15 K [m/s]	viscosity, 298.18 K [mPa·s]	viscosity, 308.15 K [mPa·s]	viscosity, 318.15 K [mPa·s]
x2 = 0	894.79	885.63	867.62	1670.8	1.276	1.107	0.9445
x2 = 0.08	907.17	897.75	880.1	1625.9	1.263	1.092	0.9318
x2 = 0.1636	919.48	909.85	892.74	1585.3	1.25	1.078	0.9205
x2 = 0.2511	931.76	921.06	905.51	1546.2	1.239	1.066	0.9111
x2 = 0.3428	944.28	934.33	918.46	1506.8	1.228	1.053	0.9021
x2 = 0.385	949.92	939.89	924.35	1488.8	1.223	1.048	0.8983
x2 = 0.5399	970.35	959.96	945.42	1428.4	1.206	1.033	0.8929
x2 = 0.6461	984.1	973.48	959.55	1395.1	1.197	1.026	0.8913
x2 = 0.7578	998.37	987.59	974.27	1369.6	1.189	1.019	0.8918
x2 = 0.8756	1013.03	1002.04	989.43	1353.7	1.182	1.016	0.8902
